Data from paper PMC12648656, “Palladium(II) Complexes with Noncovalent Interactions with DNA: Solution Speciation Controlled by Solvent Identity, pH, and Concentration” (Inorganic Chemistry, 2025).

What was measured:
[1] = Stability under light in DMSO by UV-vis; assay type: physicochemical; details: first 2.5 h
Text: The stability of the stock solutions and the effect of diffuse solar irradiation were monitored in DMSO by UV–visible (UV–vis, see Methods) spectra in the 260 to 860 nm wavelength range, and the path length was 1 cm. The initial sample was divided equally into two portions for the stability studies; one portion was irradiated with diffuse light and followed over time, while the other one was stored, protected from light, and measured 1 day after dissolution.

[2] = tested on: methicillin-resistant Staphylococcus aureus (ATCC 43300); assay: microbe, parasite or virus in culture; assay type: cell-based; details: S. aureus (MRSA), 18 h, 37 °C
Protocol: Antibacterial activity was determined for the title compounds in various Gram-negative and Gram-positive bacterial strains, namely Klebsiella pneumoniae, Escherichia coli (ATCC 25922), Staphylococcus aureus (272123), methicillin-resistant Staphylococcus aureus (ATCC 43300), and Enterococcus faecalis (ATCC 29212). The stock solutions of the tested compounds were prepared in DMSO at a 5 mM concentration. […] All stock solutions were diluted in 100 μL of Mueller Hinton Broth, and then two-fold serial dilutions were performed. Then, a 10^–4 dilution of an overnight bacterial culture in 100 μL of medium was added to each well, except for the medium control wells. The highest concentration of the compounds in the tested samples was 100 μM. The plates were incubated at 37 °C for 18 h. After that, the MIC values were determined by visual inspection.

[3] = tested on: Colo 205 human colon cancer cell line; assay: In vitro cytotoxicity, MTT; assay type: cell-based; details: Colo 205, 72 h exposure
Protocol: (§1) Cell culture reagents were obtained from Merck, and plasticware was obtained from Sarstedt. Human colon adenocarcinoma cell line Colo 205 (ATCC CCL-222) and MCF7 (ATCC HTB-22) breast cancer cells were purchased from LGC Promochem. Cancer cells were cultured in RPMI 1640 medium supplemented with 10% heat-inactivated fetal bovine serum, 2 mM L-glutamine, and 1 mM sodium pyruvate and buffered with 100 mM HEPES. The cells were incubated at 37 °C in a 5% CO2, 95% air atmosphere and were detached with Trypsin-Versene (EDTA) solution for 5 min at 37 °C.
(§2) The tested ligands were dissolved in DMSO, and the stock solutions (5 mM) were diluted in complete culture medium. Two-fold serial dilutions of compounds were made in 100 μL of the medium, horizontally. The semiadherent colon adenocarcinoma cells were treated with Trypsin-Versene (EDTA) solution. They were adjusted to a density of 1 × 10^4 cells in 100 μL of RPMI 1640 medium and were added to each well, with the exception of the medium control wells. The final volume of the wells containing compounds and cells was 200 μL. The plates containing the cells were incubated at 37 °C for 72 h; at the end of the incubation period, 20 μL of MTT solution (5 mg/mL) was added to each well. After incubation at 37 °C for 4 h, 100 μL of sodium dodecyl sulfate solution (10% in 0.01 M HCl) was added to each well, and the plates were further incubated at 37 °C overnight. Cell growth was determined by measuring the optical density (OD) at 540 and 630 nm with a Multiskan EX plate reader (Thermo Labsystems).
(§3) Curves for the data obtained on cancer cells were fitted by GraphPad Prism software using the sigmoidal dose–response model (comparing variable and fixed slopes). The IC50 values were always obtained from at least three independent experiments.

[4] = tested on: MCF7 human breast cancer cell line; assay: In vitro cytotoxicity, MTT; assay type: cell-based; details: MCF7, 72 h exposure
Protocol: as §1, §2, §3

glutathione (GSH) = assay: Reaction with glutathione followed by UV-vis; details: 30-fold GSH, ~20 μM complex, 60% (v/v) DMSO/phosphate buffer pH 7.4, 25.0 °C
Protocol: Reactions between the title compounds and GSH were also followed by UV–vis spectrophotometry under an inert atmosphere to overcome oxidation of GSH by air oxygen. Samples contained the metal complexes at low concentrations (∼20 μM) and were prepared using 60% (v/v) DMSO/phosphate buffer solution (pH 7.4) to avoid precipitation. The reactants were separated in the pockets of a tandem cuvette, followed by deoxygenation by argon bubbling. The separate solutions were mixed at 1:30 metal complex:GSH molar ratios, and UV–vis spectra were recorded. Argon was continuously passed over the sample during the whole measurement.

[5] = Stability and DMSO coordination in DMSO by 1H NMR; assay type: physicochemical
Protocol: (a) Complex (2) solutions in DMSO (D2O) investigated by NMR spectroscopy: Trying to investigate if the higher concentration is responsible for the complex transformation process in DMSO, we monitored the solution of complex (2) at 0.5 and 1 mM by ^1H NMR spectroscopy (Figure a). We could clearly see that complex (2) is only detected pure at a concentration of 0.5 mM.
NMR spectra were recorded at room temperature, using a two-channel 300 MHz Bruker Avance III-HD Nanobay spectrometer equipped with a 5 mm BBO 1H/X probe and Z gradients, located at the Interdepartmental Investigation Service (SIdI). DMSO-d 6 was used as the solvent (containing 0.05% (v/v) tetramethylsilane (TMS) as a reference). Chemical shift values are given in parts per million relative to the residual TMS signals. The following abbreviations were used: s (singlet), d (doublet), and m (multiplet). Elemental analyses were performed on a LECO CHNS-932 elemental analyzer located at SIdI. Mass spectra were recorded using FAB (fast atom bombardment) in a Waters VG AutoSpec mass spectrometry unit and using MALDI (matrix-assisted laser desorption/ionization) with a Bruker Ultraflex III (MALDI-TOF/TOF) mass spectrometry unit, both located at SIdI. Infrared (IR) spectra were recorded using a PerkinElmer Model 283 spectrometer with an attenuated total reflectance (ATR) MIRacle Single Reflection Horizontal accessory and equipped with CsI optical windows for spectra between 600 and 200 cm^–1 in Nujol mull preparations. Absorbance spectra were recorded using a Thermo Evolution 220 spectrophotometer to record the UV–visible region, equipped with temperature control within ±0.1 °C. Viscosity measurements were performed using an A&D SV-1A vibro viscometer. HPLC analyses were carried out utilizing a 1200 Infinity series HPLC system provided by Agilent Technologies coupled to a photodiode array detector.

[6] = n-Octanol/water and n-octanol/Tris buffer shake-flask partitioning; assay type: physicochemical
Protocol: The distribution coefficient values (D 7.4) of the compounds were determined by the traditional shake-flask method in n-octanol/buffered aqueous solution at pH 7.40 for 5 mM Tris HCl with 0.1 M KCl and at pH 7.4 at 25.0 ± 0.2 °C. The ligand and complexes were dissolved in n-octanol (presaturated by the aqueous buffer) because of the very low aqueous solubility. The aqueous buffer solution and n-octanol ratio was 1:1 due to the expected high lipophilicity of the compounds. First, samples were mixed with vertical rotation (∼20 rpm) for 3 h, and then the two phases were separated by centrifugation at 3000 rpm (∼1000g) for 3 min. After separation, UV–vis spectra of the compounds were recorded in both phases. Spectra of the n-octanol phases were compared to those of the original n-octanol stock solutions.
The distribution coefficient values were also determined using unbuffered water and octanol (also presaturated) with a ratio of 1:1.

Clc1ccc(N=C2N[N+](=Cc3c[nH]cn3)[Pd-2]3([S]C(Nc4ccc(Cl)cc4)=N[N+]3=Cc3c[nH]cn3)[S]2)cc1 (stereo not shown) [(2), Bis(1H-imidazole-4-carboxaldehyde-4N-p-chlorophenylthiosemicarbazonato)palladium(II)]
spectral changes when not protected from light [1]: only minor changes | MIC [2]: > 100 µM | IC50 [3]: 11.8 ± 0.35 µM | IC50 [4]: 1.55 ± 0.03 µM | time to equilibrium of the reaction with GSH (glutathione (GSH)): ≤ 30 min | molar fraction of DMSO-coordinated species (complex (3)) formed ([5]; 0.5 mM): 0% | molar fraction of DMSO-coordinated species (complex (3)) formed ([5]; 3 mM, does not increase over 24 h): 8% | time 1H NMR spectrum remains stable ([5]; in DMSO): up to 24 h | log D o/t ([6]; n-octanol/5 mM Tris HCl with 0.1 M KCl, pH 7.40, 25.0 °C): +2.32 ± 0.16 | log D o/w ([6]; n-octanol/pure (unbuffered) water, 1:1): +1.70 ± 0.06
